Where a name gives a salt, the structure may show the parent alone. Read-outs that look alike come from different tables or passages of the source.
Experiments:
[1] = target: T1, 5-HT2A receptor (Homo sapiens, UniProt P28223); experiment: Binding to 5-HT2A receptor, [125I]-DOI radioligand, CHO cell line; parameters: expressed in transfected cells; host or cells: CHO cell line
Procedure: (§1) 1. Binding to Serotonin Receptors
(§2) The binding of compounds of formula (I) to serotonin receptors was determined in vitro by standard methods. The preparations were investigated in accordance with the assays given hereinafter.
Method (c): For the binding to the 5-HT2A receptor the 5-HT2A receptors were radiolabeled with [^125I]-DOI. The affinity of the compounds for 5-HT2A receptors in a CHO cell line was determined according to the procedure of D. J. McKenna and S. J. Peroutka, J. Neurosci., 1989, 9, 3482-90.

[2] = target: T2, human 5-HT2B receptors (Homo sapiens, UniProt P41595); experiment: Binding to 5-HT2B receptor, [3H]-5-HT radioligand, CHO cell line
T2 construct: expressed in transfected cells; host or cells: CHO cell line
T2 sequence (P41595 whole entry): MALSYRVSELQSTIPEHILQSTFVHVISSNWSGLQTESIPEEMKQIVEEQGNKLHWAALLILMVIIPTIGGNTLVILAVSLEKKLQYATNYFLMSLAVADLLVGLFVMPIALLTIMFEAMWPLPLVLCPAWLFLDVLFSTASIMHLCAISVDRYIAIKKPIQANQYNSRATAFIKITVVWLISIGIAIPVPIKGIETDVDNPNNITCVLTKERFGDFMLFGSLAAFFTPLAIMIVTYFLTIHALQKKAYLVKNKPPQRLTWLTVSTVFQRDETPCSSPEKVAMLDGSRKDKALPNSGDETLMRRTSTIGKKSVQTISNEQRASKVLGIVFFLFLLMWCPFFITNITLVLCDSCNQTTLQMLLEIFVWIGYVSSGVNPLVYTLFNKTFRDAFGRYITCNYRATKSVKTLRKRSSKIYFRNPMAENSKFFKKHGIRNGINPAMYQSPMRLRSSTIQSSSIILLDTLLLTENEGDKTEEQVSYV
Procedure: as §1, §2
Method (b): For the binding to the 5-HT2B receptor the 5-HT2B receptors were radiolabeled with [^3H]-5-HT. The affinity of the compounds for human 5-HT2B receptors in a CHO cell line was determined according to the procedure of K. Schmnuck, C. Ullmer, P. Engels and H. Lubbert, FEBS Lett., 1994, 342, 85-90.

[3] = target: T3, 5-HT2C receptor (Homo sapiens, UniProt P28335); experiment: Binding to 5-HT2C receptor, [3H]-5-HT radioligand, CHO cell line; parameters: expressed in transfected cells; host or cells: CHO cell line
T3 sequence (P28335 33-458): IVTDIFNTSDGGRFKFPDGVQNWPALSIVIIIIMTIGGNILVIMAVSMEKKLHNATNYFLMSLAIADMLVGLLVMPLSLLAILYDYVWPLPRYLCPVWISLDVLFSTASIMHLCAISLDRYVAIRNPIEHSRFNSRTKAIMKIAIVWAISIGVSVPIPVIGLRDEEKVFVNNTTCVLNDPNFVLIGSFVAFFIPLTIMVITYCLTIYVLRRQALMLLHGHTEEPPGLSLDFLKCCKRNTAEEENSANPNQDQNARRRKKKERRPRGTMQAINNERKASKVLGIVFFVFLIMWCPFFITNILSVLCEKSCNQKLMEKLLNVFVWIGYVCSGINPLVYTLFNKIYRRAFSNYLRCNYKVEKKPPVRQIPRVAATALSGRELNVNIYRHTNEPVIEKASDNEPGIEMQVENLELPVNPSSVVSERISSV
Procedure: as §1, §2
Method (a): For the binding to the 5-HT2C receptor the 5-HT2C receptors were radiolabeled with [^3H]-5-HT. The affinity of the compounds for 5-HT2C receptors in a CHO cell line was determined according to the procedure of D. Hoyer, G. Engel and H. O. Kalkman, European J. Pharmacol., 1985, 118, 13-23.

[4] = system: 5-HT2C syndrome; experiment: 5-HT2C syndrome in rats (splayed limbs, hunched posture, retro-pulsion); format: in vivo; conditions: 30 mg/kg s.c.
Procedure: The efficacy of 5-HT2C agonists was assessed for ability to induce a specific syndrome.
The 5-HT2C syndrome is a rapid screening method to assess the in vivo efficacy of 5-HT2C agonists through their ability to induce three specific behaviours in rats. The animals are dosed with either a positive control (mCPP), test compound or vehicle, either sub-cutaneously or p.o. The animals are observed on an open bench, typically 30, 60 and 180 minutes and the degree of syndrome is assessed over a two minute period on a scale of 0-3 depending on the presence and severity of splayed limbs, hunched posture and retro-pulsion, the three specific behaviours which constitute the syndrome. Data is analysed using Kruskal-Wallis Analysis of Variance followed with appropriate post-hoc tests. All statistical analysis are conducted using Excel version 7.0 (Microsoft Corp.) and Statistica version 5.0 (Statsoft, Inc.).

[5] = target: T3, 5-HT2C receptor; experiment: Functional activity, FLIPR calcium assay in CHO cells expressing human 5-HT2C; format: cell-based; parameters: expressed in transfected cells; host or cells: CHO cells; conditions: for Emax: CHO, read-out: h5-HT2C Relative Efficacy (%)
Procedure: (§3) The functional activity of compounds of formula (I) was assayed using a Fluorimetric Imaging Plate reader (FLIPR). CHO cells expressing the human 5-HT2C or human 5-HT2A receptors were counted and plated into standard 96 well microtitre plates on the day before testing to give a confluent monolayer. The cells were then dye loaded with the calcium sensitive dye, Fluo-3-AM. Unincorporated dye was removed using an automated cell washer to leave a total volume of 100 μL/well of assay buffer (Hanks balanced salt solution containing 20 mM Hepes and 2.5 mM probenecid). The drug (dissolved in 50 μL of the assay buffer) was added at a rate of 70 μL/sec to each well of the FLIPR 96 well plate during fluorescence measurements. The measurements were taken at 1 sec intervals and the maximum fluorescent signal was measured (approx 10-15 secs after drug addition) and compared with the response produced by 10 μM 5-HT (defined as 100%) to which it was expressed as a percentage response (relative efficacy). Dose response curves were constructed using Graphpad Prism (Graph Software Inc.).

[6] = target: T1, 5-HT2A receptor; experiment: Functional activity, FLIPR calcium assay in CHO cells expressing human 5-HT2A; format: cell-based; parameters: expressed in transfected cells; host or cells: CHO cells; conditions: for Emax: CHO, read-out: h5-HT2A Relative Efficacy (%)
Procedure: as §3

[7] = system: 5-HT2C receptor; conditions: cited from earlier work
[8] = cited from earlier work
[9] = cited from earlier work; remark: listed apart in the source
[10] = FLIPR, CHO cells, Fluo-3-AM, read-out: h5-HT2C EC50
[11] = [125I]-DOI, CHO cell line, read-out: Ki (2A)
[12] = [3H]-5-HT, human receptor, CHO cell line, read-out: Ki (2B)
[13] = FLIPR, CHO cells, Fluo-3-AM, read-out: h5-HT2A EC50
[14] = [3H]-5-HT, CHO cell line, read-out: Ki (2C)

T1 sequence (P28223 whole entry): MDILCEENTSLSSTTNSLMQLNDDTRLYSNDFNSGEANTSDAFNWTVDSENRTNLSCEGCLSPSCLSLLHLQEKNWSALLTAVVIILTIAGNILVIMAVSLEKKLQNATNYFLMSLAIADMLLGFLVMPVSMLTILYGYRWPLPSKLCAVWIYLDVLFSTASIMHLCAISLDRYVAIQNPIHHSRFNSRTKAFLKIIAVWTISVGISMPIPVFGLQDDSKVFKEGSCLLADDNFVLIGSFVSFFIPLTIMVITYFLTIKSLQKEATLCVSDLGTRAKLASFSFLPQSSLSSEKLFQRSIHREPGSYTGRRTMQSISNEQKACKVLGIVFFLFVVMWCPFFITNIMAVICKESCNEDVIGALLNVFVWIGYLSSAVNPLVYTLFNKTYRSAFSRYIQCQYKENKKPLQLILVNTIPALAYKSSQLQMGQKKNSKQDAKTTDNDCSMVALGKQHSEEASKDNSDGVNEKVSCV

SMILES | melting point | Ki [1] | Ki [2] | Ki [3] | Emax [5] | Emax [6] | other results
CCSc1cc2c(cc1F)CCN2C[C@H](C)N (as salt: fumarate) [Example 31] | 164 to 168 °C |  |  |  |  |  | 
Cc1cccc2c1CCN2C[C@H](C)N (as salt: fumarate) [Example 32] | 161 to 162 °C |  |  |  |  |  | 
C[C@H](N)CN1CCc2c(F)cccc21 (as salt: fumarate) [Example 35] | 167 to 168 °C |  |  |  |  |  | 
CCc1cccc2c1N(C[C@H](C)N)CC2 (as salt: fumarate) [Example 37] | 182 to 183 °C |  |  |  |  |  | 
C[C@H](N)CN1CCc2c(Cl)cccc21 (as salt: fumarate) [Example 38] | 190 to 192 °C |  |  |  |  |  | 
CCCSc1ccc2c(c1)N(C[C@H](C)N)CC2 (as salt: fumarate) [Example 41] | 147 to 148 °C |  |  |  |  |  | 
CC(C)Sc1ccc2c(c1)N(C[C@H](C)N)CC2 (as salt: fumarate) [Example 42] | 164 to 165 °C |  |  |  |  |  | 
C[C@H](N)CN1CCc2ccc(-c3cccnc3)cc21 (as salt: fumarate) [Example 47] | 155 °C (dec.) |  |  |  |  |  | 
C[C@H](N)CN1CCc2ccc(N3CCOCC3)cc21 (as salt: fumarate) [Example 49, (S)-1-[6-(4-Morpholinyl)indolin-1-yl]-2-propylamine Fumarate] | 188 to 191 °C (dec.) |  |  |  |  |  | 
NCCN1CCc2ccc(Br)cc21 (as salt: fumarate) [Example 50, 2-(6-Bromoindolin-1-yl)-1-ethylamine Fumarate] | 203 to 206 °C |  |  |  |  |  | 
NCCN1CCc2ccc(Cl)cc21 (as salt: fumarate) [Example 51, 2-(6-Chloroindolin-1-yl)-1-ethylamine Fumarate] | 195 to 196 °C |  |  |  |  |  | 
C[C@H](N)CN1CCc2cc(F)c(C(F)(F)F)cc21 (as salt: fumarate) [Example 60, (S)-1-(5-Fluoro-6-trifluoromethylindolin-1-yl)-2-propylamine Fumarate] | 190 to 192 °C |  |  |  |  |  | 
C[C@H](N)CN1CCc2cc(F)c(I)cc21 (as salt: fumarate) [Example 61, (S)-1-(5-Fluoro-6-iodoindolin-1-yl)-2-propylamine Fumarate] | 185 to 187 °C |  |  |  |  |  | 
CC(N)CN1CCc2ccc(Cl)cc21 (racemic) (as salt: hydrochloride) [Example 1, (RS)-1-(6-Chloroindolin-1-yl)-2-propylamine Hydrochloride] | 262 °C |  |  |  |  |  | 
COc1ccc2c(c1)N(CC(C)N)CC2 (racemic) (as salt: hydrochloride) [Example 2, (RS)-1-(6-Methoxyindolin-1-yl)-2-propylamine Hydrochloride] | 142 to 143 °C |  |  |  |  |  | 
CC(N)CN1CCc2ccc(Cl)cc21 (racemic) [Example 1, (RS)-1-(6-Chloroindolin-1-yl)-2-propylamine Hydrochloride] |  | 405 nM | 113 nM | 357 nM |  |  | time for which significant pharmacological efficacy is maintained (5-HT2C syndrome) [4]: at least 180 minutes
C[C@H](N)CN1CCc2ccc(Cl)cc21 [Example 10, (S)-1-(6-Chloroindolin-1-yl)-2-propylamine Fumarate] |  | 252 nM | 138 nM | 55 nM | 62% | 49% | EC50 [5]: 125 nM; EC50 [6]: 2210 nM
C[C@H](N)CN1CCc2ccc(Br)cc21 [Example 12] |  | 1090 nM | 42 nM | 77 nM | 59% | 49% | EC50 [5]: 230 nM; EC50 [6]: 2410 nM
COc1ccc2c(c1)N(C[C@H](C)N)CC2 [Example 13] |  | 461 nM | 175 nM | 122 nM | 74% | 72% | EC50 [5]: 75 nM; EC50 [6]: 386 nM
C[C@H](N)CN1CCc2cc(F)c(F)cc21 [Example 22] |  | 325 nM | 92 nM | 260 nM | 87% | 57% | EC50 [5]: 83 nM; EC50 [6]: 2570 nM
C[C@H](N)CN1CCc2ccc(C(F)(F)F)cc21 [Example 24] |  | 1870 nM | 148 nM | 235 nM | 72% | 33% | EC50 [5]: 131 nM; EC50 [6]: 3650 nM
C[C@H](N)CN1CCc2cc(F)c(Br)cc21 [Example 25] |  | 156 nM | 22 nM | 63 nM | 81% | 57% | EC50 [5]: 21 nM; EC50 [6]: 1240 nM
C[C@@H](N)CN1CCc2ccc(C(F)(F)F)cc21 [Example 26] |  | 1260 nM | 761 nM | 1160 nM |  |  | 
NCCN1CCc2ccc(Br)cc21 [Example 50, 2-(6-Bromoindolin-1-yl)-1-ethylamine Fumarate] |  |  |  |  | 78% | 25% | EC50 [5, 10]: 38 nM; Ki [1, 11]: 332 nM; Ki [2, 12]: 159 nM; EC50 [6, 13]: 4080 nM; Ki [3, 14]: 61 nM
NCCN1CCc2ccc(Cl)cc21 [Example 51, 2-(6-Chloroindolin-1-yl)-1-ethylamine Fumarate] |  |  |  |  | 88% | 45% | EC50 [5, 10]: 36 nM; Ki [1, 11]: 1110 nM; Ki [2, 12]: 140 nM; EC50 [6, 13]: 1890 nM; Ki [3, 14]: 165 nM
Clc1cccc(N2CCNCC2)c1 [mCPP, m-chlorophenylpiperazine] |  |  |  |  |  |  | anorectic action in 5-HT2C receptor knockout mutant mice [7]: absent; appetite and body weight of obese subjects ([8]; obese male and female subjects, subchronic treatment for a 14 day period): decreased the appetite and body weight; food intake in female volunteers ([8]; single dose, female volunteers): decreased food intake; appearance of the behavioural satiety sequence ([9]; rat, in vivo): accelerate the appearance of the behavioural satiety sequence; food intake in rats ([9]; rats): reduce food intake

— patent US6380238B1, “Indoline derivatives as 5-HT2B and or 5-HTC receptor ligands” (Vernalis Research Limited, priority 1998, dated 2002)
